Where “and” joins values, the source holds several entries; their conditions need not be identical. Equal values may be shown once. Toxic doses and inconclusive results are not listed. The calls were made as follows: active = survival T/C of 150% or more; inactive = T/C below 125% in these data.
Tested on: C57BL/6 mice, intracerebral ependymoblastoma, median survival T/C
Assay: NCI In Vivo Anticancer Drug Screen. Data for tumor model Ependymoblastoma (intracerebral) in C57BL/6 mice
Details: endpoint: median survival time, vehicle: saline, higher = longer survival
Method: The antitumor activity of compounds was measured in mice bearing transplantable tumors. Survival or tumor size were measured and the results are expressed as the measurement made in the treated group (T) divided by the measurement made in the vehicle treated control group (C). The tumor model used in this assay is Ependymoblastoma (intracerebral) in C57BL/6 mice

Measured: T/C

N=c1ccn2c(n1)OC1C(O)C(CO)OC12 (configuration not stated)
inactive: dose: 100.0 mg/kg/injection, schedule: Q01DX001 (ip) 118 % of control | dose: 100.0 mg/kg/injection, schedule: Q01DX005 (ip) 106 % of control and 112 % of control | dose: 200.0 mg/kg/injection, schedule: Q01DX001 (ip) 123 % of control | dose: 200.0 mg/kg/injection, schedule: Q01DX005 (ip) 120 % of control and 122 % of control | dose: 400.0 mg/kg/injection, schedule: Q01DX001 (ip) 111 % of control | dose: 400.0 mg/kg/injection, schedule: Q01DX005 (ip) 122 % of control | dose: 800.0 mg/kg/injection, schedule: Q01DX001 (ip) 116 % of control
